From US20260207604A1, “COMPOUND AND USE THEREOF” (ONQUALITY PHARMACEUTICALS CHINA LTD., priority 2022, published 2026)

Assay: Single-dose intravenous and oral pharmacokinetic study in mice
Type: in vivo, Balb/c mice
Details: mouse; male Balb/c mice, PO 50 mg/kg, plasma
Method: Twenty-seven male Balb/c mice were randomly divided into 3 groups, 9 mice in each group. Group 1: mice received an intravenous (IV) dose of Compound 1 at 5 mg/kg with a dosing volume of 5 mL/kg. Blood samples were collected at 0.083, 0.25, 0.5, 1, 2, 4, 6, 8, and 24 hours post-dose using a staggered sampling method. Group 2: mice received an oral (gavage) dose of Compound 1 at 50 mg/kg with a dosing volume of 10 mL/kg. Blood samples were collected at 0.25, 0.5, 1, 2, 4, 6, 8, and 24 hours post-dose using a staggered sampling method. Group 3: mice received an oral (gavage) dose of palbociclib at 50 mg/kg with a dosing volume of 10 mL/kg. Blood samples were collected at 1, 3, 4, 6, 8, 10, 12, and 24 hours post-dose using a staggered sampling method. For each group, 3 samples were collected at each time point. Plasma was separated by centrifugation and stored at −70° C. The concentrations of Compound 1 or palbociclib in plasma were measured using LC-MS/MS.

CC(=O)c1c(C)c2cnc(Nc3ccc(N4CCNCC4)cn3)nc2n(C2CCCC2)c1=O [palbociclib, reference compound]
AUC(0-t): 18300 ng·h/mL
Cmax: 1320 ng/mL
Tmax: 8 h
half-life: 7.64 h
